Source: PMC3609778, “Truncated and Helix-Constrained Peptides with High Affinity and Specificity for the cFos Coiled-Coil of AP-1” (PLoS ONE, 2013)
Entries after “also recorded” stand apart in the source; their conditions may differ. Where a SMILES comes first, the peptide text is derived from it. Bridges are numbered along the chain shown (N, C = ends). [ ]: non-standard residue; d: D form. Cha = N[C@@H](CC1CCCCC1)C(=O)O

How the values were obtained:
[1] = Circular dichroism helicity of peptide in isolation (homotypic); format: physicochemical; settings: for Homotypic Ɵ222/208 (20ºC): CD ratio, 20 °C; for Homotypic Ɵ222/208 (20ºC) / Fraction helical (ƒH), homotypic: peptide in isolation; for Fraction helical (ƒH), homotypic: from CD molar residue ellipticity at 222 nm
Description: (§1) Circular dichroism (CD) spectroscopy was conducted with an Applied Photophysics Chirascan CD spectroploarimeter (Leatherhead, U.K.) using a 200 µL sample in a CD cell with a 1 mm path length (Hellma, Müllheim Germany). Samples contained 150 µM total peptide concentration suspended in 10 mM potassium phosphate and 100 mM potassium fluoride at pH 7. The CD spectra of the homodimeric and heterodimeric complexes were scanned between 300 nm and 190 nm at 20°C (for both pre- and post-melt samples to check for reversibility of unfolding) and at −8°C to assess helical levels and coiled-coil structure (see Figure 4).
(§2) Supplementary file pone.0059415.s005.doc: Table S1 Helical Data obtained via Circular Dichroism. Shown are A) homo and B) heteromeric samples. […] A ratio higher than 1 is generally indicated evidence that a coiled coil has formed, while a ratio of less than 0.9 is taken to indicate the presence of isolated helices. Shown in column two are the calculated fractional helicities taken from the Molar Residue Ellipticity at […]. Fraction helicity (ƒH) can be calculated as ƒH = (θ222−θc)/(θ222∞−θc) where θ222∞ = (−44000+250*T)*(1−k/Nr) and θc = 2220–(53*T). In these equations the wavelength dependent constant k = 2.4 (at 222 nm), Nr = the number of residues, and T = 20 degrees Celsius (293 K). The 222/208 ratio is used to provide evidence on whether the helices are monomeric or are adopting a quaternary structure. Measured helicity for the original JunWCANDI peptide and for the template on which the hydrocarbon constraints have been introduced. […] The N- and C-capping motifs have been removed for the constrained since they are considered to be largely redundant upon their introduction. (DOC) Click here for additional data file.

[2] = target: T1, cFos (Homo sapiens, UniProt P01100); assay: Circular dichroism spectra of peptide-cFos mixtures; format: binding; settings: mixture with cFos; for Peptide-cFos Ɵ222/208 (20ºC): CD ratio, 20 °C; for Peptide-cFos Fraction helical (ƒH): CD 222 nm, 20°C, 150 µM total peptide
T1 sequence (P01100 whole entry): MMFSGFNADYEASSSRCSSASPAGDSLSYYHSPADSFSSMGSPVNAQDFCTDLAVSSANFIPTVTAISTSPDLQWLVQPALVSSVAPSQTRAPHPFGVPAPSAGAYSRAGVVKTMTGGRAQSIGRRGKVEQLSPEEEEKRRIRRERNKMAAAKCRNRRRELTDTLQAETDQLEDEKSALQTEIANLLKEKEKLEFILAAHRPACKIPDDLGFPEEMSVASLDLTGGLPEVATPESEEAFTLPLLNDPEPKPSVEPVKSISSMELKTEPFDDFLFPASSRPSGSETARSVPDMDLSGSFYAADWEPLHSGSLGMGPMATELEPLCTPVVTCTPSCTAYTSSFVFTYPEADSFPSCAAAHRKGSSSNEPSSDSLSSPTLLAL
Description: as §1
(§3) Thermal denaturation data and spectra for the cFos homotypic complex (black), helix constrained peptide (blue), and heteromeric complex (red) were recorded using 200 µL of sample at 150µM total peptide concentration (Figure 4, Figure S1). Next, 100 µL of each solution was mixed and the spectra taken such that the final total peptide concentration was also 150 µM. More experimental procedures can be found in File S1.
as §2

[3] = system: cJun; assay: CD spectra and thermal denaturation of peptide-cJun mixtures (specificity); format: binding; settings: equimolar with cJun
Description: (§4) To establish if the truncated and constrained peptides retained the interaction specificity of the JunWCANDI parent peptide, peptides capable of interacting with cFos were also incubated at equimolar concentrations with cJun and monitored via CD spectra. […] In addition, a dimer exchange experiment was performed for the most helical peptide 24. Spectra for a cJun-peptide solution and a cFos solution should, upon mixing, generate an averaged spectrum if there was no dimer exchange. […] Spectra for both mixtures can be superimposed (Figure S4).
Supplementary file pone.0059415.s002.tiff: Figure S2 Raw thermal melting data for homo and heterodimeric complexes with cJun for constrained peptides 1 , 2 , 8 , 9, 10 , 11, 12, 17, 20, 22, and 24 . […] (TIFF) Click here for additional data file.
Supplementary file pone.0059415.s003.tiff: Figure S3 CD spectra as MRE both in isolation and as a mixture with cJun. From these raw data it is also clear that no interaction is occurring between constrained peptides and cJun. Rather, specta appear as averages of their homodimeric components (i.e. superimpose with the homomeric averages). We observe no heteromeric helical signal (red) that exceeds the average (black dotted line) of cJun (black) and the constrained peptide (blue), that would be anticipated for a non-interacting pair. (TIFF) Click here for additional data file.
Supplementary file pone.0059415.s005.doc: Table S1 Helical Data obtained via Circular Dichroism. Shown are A) homo and B) heteromeric samples. […] A ratio higher than 1 is generally indicated evidence that a coiled coil has formed, while a ratio of less than 0.9 is taken to indicate the presence of isolated helices. Shown in column two are the calculated fractional helicities taken from the Molar Residue Ellipticity at […]. Fraction helicity (ƒH) can be calculated as ƒH = (θ222−θc)/(θ222∞−θc) where θ222∞ = (−44000+250*T)*(1−k/Nr) and θc = 2220–(53*T). […] Measured helicity for the original JunWCANDI peptide and for the template on which the hydrocarbon constraints have been introduced. […]

[4] = target: T1, cFos; assay: Thermal denaturation (CD at 222 nm) of peptide-cFos mixtures; format: binding; settings: judged from thermal denaturation profiles and CD spectra of mixtures with cFos
Description: as §3

[5] = Serum stability; format: in vitro ADME; settings: 200 µL of 1 mg/ml peptide in water added to 800 µL human serum, 37°C, aliquots 0-24 h, acetonitrile/water 3:1, LC-MS-MS total ion counts
Description: Stock solutions of 12 and 24 in both constrained forms and linear forms lacking constraints were prepared in water (1 mg/ml), 200 µL was added to human serum (800 µL) and incubated at 37°C. Aliquots (100 µL) of this diluted serum were removed at 0, 0.5, 1, 2, 4, 16, and 24 hours and a mixture of acetonitrile/water 3∶1 (300 µL) was added to each aliquot before centrifuging (17000 rpm, 15 min). Aliquots (100 µL) of the supernatant were then analysed by LC-MS-MS after passing through a 2.1×150 mm Phenomenex 300A C18 5 µm column at 10% per minute linear gradient from 0–100% acetonitrile over 12 minutes. The amount of starting material was quantified by determination of total ion counts for the m/3+ and m/4+ ion for each peptide (Figure 3).

[6] = target: T1, cFos; assay: Dimer exchange experiments between cJun, cFos and constrained peptide (CD spectra); format: binding; settings: equimolar mixtures, CD spectra compared with average of constituent spectra
Description: as §4
(TIFF) Click here for additional data file.

[7] = target: T1, cFos; assay: Isothermal Titration Calorimetry (ITC) of peptides with cFos; format: binding; settings: 20°C
Description: Figure 5 Isothermal Titration Calorimetry (ITC) analysis of leucine zipper domain interactions between constrained peptides and cFos. Shown are isotherms for all ten measureable heterodimers (1, 2, 8, 10, 11, 12, 17, 20, 22, and 24) injected into a cell containinginto cFos. The top and bottom panels show, respectively, raw data after baseline correction. During ITC experiments, approximately 200–600 µM of peptide A was injected in 30–40×5 µl batches from the injection syringe into the cell, which contained 10–40 µM cFos. Both partners were in a 10 mM Potassium Phosphate buffer, 100 mM Potassium Fluoride at pH 7. Experiments were undertaken at 20°C. […]
ITC Measurements - ITC measurements were made using a Microcal VP-ITC instrument with data collected and processed using the Origin 7.0 software package. […] The change in thermal power as a function of each injection was automatically recorded using the Microcal Origin software and the raw data were integrated to yield ITC isotherms of heat release per injection as a function of Fos to Jun Molar ratio (Figure 5). […]
where R is the universal molar gas constant (1.9872 cal·K^-1·mol^-1), T is the absolute temperature in Kelvin (293.15 K) and KD is the dissociation constant of binding with units of mol·L^-1. Finally, the entropic contribution (TΔS) to the free energy of binding was calculated using the derived values of ΔH and ΔGbind.

Homotypic Ɵ222/208 (20ºC) [1] | Fraction helical (ƒH), homotypic ([1]; 20°C, 150 µM, pH 7) | Peptide-cFos Ɵ222/208 (20ºC) [2] | Peptide-cFos Fraction helical (ƒH) [2] | Compound | interaction with cJun (in words) [3] | interaction with cFos (in words) [4] | stability in human serum [5] | dimer exchange on mixing cFos-cFos with cJun-peptide [6] | dimer exchange on mixing cJun-cJun with cFos-peptide [6] | TΔS [ΔH – ΔG] ([7]; calculated according to TΔS = ΔH−ΔG) [kcal/mol] | ΔH ([7]; pH 7) [kcal/mol] | helicity of peptide in isolation ([1]; from CD spectra, 20°C, 150 µM, pH 7) [%]
0.91 | 0.42 | 0.90 | 0.40 | CC[C@H](C)[C@H](NC(=O)[C@H](Cc1c[nH]cn1)NC(=O)[C@@H]1CC(=O)NCCCC[C@H](NC(=O)[C@H](C)NC(=O)[C@H](CCCCN)NC(=O)[C@H](CO)NC(=O)[C@H](CCCNC(=N)N)NC(=O)[C@H](CC2CCCCC2)NC(=O)[C@@H]2CC(=O)NCCCC[C@H](NC(=O)[C@H](CCCCN)NC(=O)[C@H](CC(C)C)NC(C)=O)C(=O)N[C@@H](CCC(=O)O)C(=O)N[C@@H]([C@@H](C)CC)C(=O)N[C@@H](Cc3ccc(O)cc3)C(=O)N2)C(=O)N[C@@H](CCSC)C(=O)N[C@@H](CC(C)C)C(=O)N[C@@H](CCCNC(=N)N)C(=O)N1)C(=O)N[C@@H](C)C(=O)N[C@@H](CCC(N)=O)C(=O)N[C@@H](CC(C)C)C(N)=O [compound 17] (Ac-LKKEIYD[Cha]RSKAKMLRDHIAQL-NH2; lactam 3-7, 13-17) | none of the peptides form a stable interaction with cJun | – | – | – | – | – | – | –
0.91 | 0.51 | 0.92 | 0.49 | CC[C@H](C)[C@H](NC(=O)[C@H](Cc1c[nH]cn1)NC(=O)[C@@H]1CC(=O)NCCCC[C@H](NC(=O)[C@H](C)NC(=O)[C@H](CCCCN)NC(=O)[C@H](CO)NC(=O)[C@H](CCCNC(=N)N)NC(=O)[C@H](CC(C)C)NC(=O)[C@@H]2CC(=O)NCCCC[C@H](NC(=O)[C@H](CCCCN)NC(=O)[C@H](CC3CCCCC3)NC(C)=O)C(=O)N[C@@H](CCC(=O)O)C(=O)N[C@@H]([C@@H](C)CC)C(=O)N[C@@H](Cc3ccc(O)cc3)C(=O)N2)C(=O)N[C@@H](CCSC)C(=O)N[C@@H](CC(C)C)C(=O)N[C@@H](CCCNC(=N)N)C(=O)N1)C(=O)N[C@@H](C)C(=O)N[C@@H](CCC(N)=O)C(=O)N[C@@H](CC1CCCCC1)C(N)=O [compound 20] (Ac-[Cha]KKEIYDLRSKAKMLRDHIAQ[Cha]-NH2; lactam 3-7, 13-17) | none of the peptides form a stable interaction with cJun | profiles consistent with a strong interaction affinity for cFos | – | – | – | – | – | –
1.08 | 0.69 | 1.00 | 0.52 | CC[C@H](C)[C@@H]1NC(=O)[C@H](Cc2c[nH]cn2)NC(=O)[C@@H](NC(=O)[C@H](CCCNC(=N)N)NC(=O)[C@H](CC(C)C)NC(=O)[C@@H]2CC(=O)NCCCC[C@H](NC(=O)[C@H](CCCNC(=N)N)NC(=O)[C@H](CC(C)C)NC(=O)[C@@H]3CC(=O)NCCCC[C@H](NC(=O)[C@H](CCCNC(=N)N)NC(=O)[C@H](CC4CCCCC4)NC(C)=O)C(=O)N[C@@H](CCC(=O)O)C(=O)N[C@@H]([C@@H](C)CC)C(=O)N[C@@H](Cc4ccc(O)cc4)C(=O)N3)C(=O)N[C@@H](CCCCN)C(=O)N[C@@H](C)C(=O)N[C@@H](CC(N)=O)C(=O)N2)CCCCNC(=O)C[C@@H](C(=O)N[C@@H](CC2CCCCC2)C(N)=O)NC(=O)[C@H](C)NC1=O [compound 24, Ac-cyclo-(3,7; 10,14; 17,21)-ChaR[KEIYD]LR[KKAND]LR[KHIAD]Cha-NH2] (Ac-[Cha]RKEIYDLRKKANDLRKHIAD[Cha]-NH2; lactam 3-7, 10-14, 17-21) | none of the peptides form a stable interaction with cJun | – | resistant to proteolytic degradation in serum; also recorded: fairly stable in human serum over 4 h; also recorded: much more stable in human serum at 37° than the same peptide lacking the constraints | dimer exchange did occur; also recorded: dimer exchange has occurred | no change in binding partner for peptide had occurred; also recorded: no change has occurred | – | – | –

Compound | Homotypic Ɵ222/208 (20ºC) [1] | Fraction helical (ƒH), homotypic ([1]; 20°C, 150 µM, pH 7) | Peptide-cFos Ɵ222/208 (20ºC) [2] | Peptide-cFos Fraction helical (ƒH) [2] | interaction with cJun (in words) [3] | interaction with cFos (in words) [4] | stability in human serum [5] | dimer exchange on mixing cFos-cFos with cJun-peptide [6] | dimer exchange on mixing cJun-cJun with cFos-peptide [6] | TΔS [ΔH – ΔG] ([7]; calculated according to TΔS = ΔH−ΔG) [kcal/mol] | ΔH ([7]; pH 7) [kcal/mol] | helicity of peptide in isolation ([1]; from CD spectra, 20°C, 150 µM, pH 7) [%]
Ac-ASAAELEERAKTLKAEIYELRSKANMLREHIAQLGAP-NH2 [JunWCANDI, reference compound] | 0.79 | 0.19 | 0.97 | 0.42 | – | – | – | – | – | -6.9 | -14.8 | 19
